Reference: ChEMBL document CHEMBL1201862, “PubChem BioAssay data set” (2004)
Active and inactive are the calls of the source. For most assays here, no stated cut-off is given here; in the data, actives have a measured EC50 and inactives only a lower limit.

Assays:
[1] = tested on: H4; assay: Luminescence Cell-Based Dose Response HTS to Identify Activators of 5'UTR Stem-Loop Driven Prion Protein mRNA Translation in H4 Neuroglioblastoma Cells. [Related pubchem assays: 1829 (Project Summary), 1814 (Primary HTS)]; assay type: functional; conditions: Homo sapiens
[2] = Luminescence Cell-Based Dose Response HTS to Identify Activators of Luciferase Translation or Activity in H4 […] Cells. [Related pubchem assays: 1829 (Project Summary), 1814 (Primary HTS)]; assay type: functional
[3] = Luminescence Cell-Based Dose Confirmation HTS to Identify Activators of 5'UTR Stem-Loop Driven Alpha-Synuclein mRNA Translation in H4 Neuroglioblastoma Cells. [Related pubchem assays: 1829 (Project Summary), 1814 (Primary HTS)]; assay type: functional
[4] = biological target: Voltage-dependent T-type calcium channel subunit alpha-1H (Homo sapiens, UniProt O95180); assay type: functional;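 further: channel activity triggered by adding a high calcium stimulation buffer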
Chain of Voltage-dependent T-type calcium channel subunit alpha-1H (O95180 whole entry): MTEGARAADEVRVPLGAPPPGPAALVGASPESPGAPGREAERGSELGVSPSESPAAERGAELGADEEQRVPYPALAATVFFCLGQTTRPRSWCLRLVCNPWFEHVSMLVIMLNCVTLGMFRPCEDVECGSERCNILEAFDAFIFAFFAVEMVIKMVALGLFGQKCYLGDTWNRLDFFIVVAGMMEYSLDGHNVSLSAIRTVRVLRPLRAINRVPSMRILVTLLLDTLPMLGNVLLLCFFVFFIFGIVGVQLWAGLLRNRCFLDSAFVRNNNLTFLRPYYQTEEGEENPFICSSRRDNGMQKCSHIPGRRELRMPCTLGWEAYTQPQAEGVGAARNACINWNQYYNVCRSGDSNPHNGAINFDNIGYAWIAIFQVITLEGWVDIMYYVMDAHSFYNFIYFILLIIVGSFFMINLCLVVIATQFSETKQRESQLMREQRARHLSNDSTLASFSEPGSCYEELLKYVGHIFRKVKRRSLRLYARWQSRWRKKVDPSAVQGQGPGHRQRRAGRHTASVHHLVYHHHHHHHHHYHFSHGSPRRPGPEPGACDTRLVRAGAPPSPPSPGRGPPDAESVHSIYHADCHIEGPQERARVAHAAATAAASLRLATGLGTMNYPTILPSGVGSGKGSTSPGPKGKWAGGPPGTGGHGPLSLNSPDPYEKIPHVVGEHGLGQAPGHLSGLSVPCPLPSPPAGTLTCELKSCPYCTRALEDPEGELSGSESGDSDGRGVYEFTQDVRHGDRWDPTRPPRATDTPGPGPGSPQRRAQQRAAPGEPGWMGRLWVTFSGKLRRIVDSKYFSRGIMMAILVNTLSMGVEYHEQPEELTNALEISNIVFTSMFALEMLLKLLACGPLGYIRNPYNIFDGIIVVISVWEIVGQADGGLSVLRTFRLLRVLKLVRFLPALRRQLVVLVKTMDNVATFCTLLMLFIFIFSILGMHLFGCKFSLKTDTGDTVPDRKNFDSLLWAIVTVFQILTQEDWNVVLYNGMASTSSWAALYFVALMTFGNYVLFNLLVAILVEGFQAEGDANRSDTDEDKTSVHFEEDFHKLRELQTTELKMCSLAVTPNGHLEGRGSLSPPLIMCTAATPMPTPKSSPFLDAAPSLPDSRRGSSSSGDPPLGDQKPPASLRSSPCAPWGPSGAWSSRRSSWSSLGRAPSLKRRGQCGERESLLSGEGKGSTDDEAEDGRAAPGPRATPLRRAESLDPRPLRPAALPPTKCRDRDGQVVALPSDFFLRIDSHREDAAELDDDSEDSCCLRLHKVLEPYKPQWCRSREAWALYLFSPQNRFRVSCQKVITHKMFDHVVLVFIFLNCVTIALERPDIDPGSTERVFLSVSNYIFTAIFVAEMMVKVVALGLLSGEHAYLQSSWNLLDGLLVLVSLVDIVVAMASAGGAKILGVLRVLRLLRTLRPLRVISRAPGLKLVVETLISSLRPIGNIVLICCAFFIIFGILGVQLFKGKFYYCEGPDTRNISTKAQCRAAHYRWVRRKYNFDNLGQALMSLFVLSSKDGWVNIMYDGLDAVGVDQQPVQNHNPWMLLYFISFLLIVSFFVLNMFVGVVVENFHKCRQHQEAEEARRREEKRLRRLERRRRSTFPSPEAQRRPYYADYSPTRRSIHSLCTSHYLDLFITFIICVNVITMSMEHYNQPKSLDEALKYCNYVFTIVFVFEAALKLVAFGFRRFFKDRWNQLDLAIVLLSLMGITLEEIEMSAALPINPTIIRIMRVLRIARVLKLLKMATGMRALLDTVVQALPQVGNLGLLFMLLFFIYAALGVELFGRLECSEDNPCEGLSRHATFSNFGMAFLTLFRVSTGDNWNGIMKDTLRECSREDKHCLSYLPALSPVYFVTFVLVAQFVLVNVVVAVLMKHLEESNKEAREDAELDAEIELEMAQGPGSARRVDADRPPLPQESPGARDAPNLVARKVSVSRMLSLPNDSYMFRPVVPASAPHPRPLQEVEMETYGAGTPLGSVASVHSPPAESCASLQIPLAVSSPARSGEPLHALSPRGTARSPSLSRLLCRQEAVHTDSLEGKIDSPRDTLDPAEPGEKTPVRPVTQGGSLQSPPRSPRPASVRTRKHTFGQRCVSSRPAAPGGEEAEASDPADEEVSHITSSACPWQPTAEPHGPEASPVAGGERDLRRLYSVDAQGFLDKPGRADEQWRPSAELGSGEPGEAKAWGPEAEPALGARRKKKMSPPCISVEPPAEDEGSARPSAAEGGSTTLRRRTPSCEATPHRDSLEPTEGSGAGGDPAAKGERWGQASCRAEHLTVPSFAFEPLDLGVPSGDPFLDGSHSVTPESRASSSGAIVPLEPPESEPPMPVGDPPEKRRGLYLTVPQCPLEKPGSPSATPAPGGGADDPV

[5] = C. albicans growth with fluconazole, confirmation, fluorescence, retest (AID 2467); assay type: functional, cell-based
[6] = NIH-3T3 fibroblast cytotoxicity, dose response, cytotoxicity control, cell-based, fluorescence, Alamar Blue, secondary assay (AID 2327); assay type: functional;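 further: NIH-3T3 mouse fibroblasts cultured with fluconazole at 8 µg/mL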
[7] = biological target: T1, Fatty acid synthase (Homo sapiens, UniProt P49327); assay: FAS thioesterase domain inhibitors, dose response, biochemical, endpoint fluorescence intensity, uHTS hits (AID 624327); assay type: functional;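 further: fluorescence from hydrolysis of an O-methyl fluorescein acyl ester substrate by the enzyme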
T1 sequence (P49327 whole entry, the tested form may be a part): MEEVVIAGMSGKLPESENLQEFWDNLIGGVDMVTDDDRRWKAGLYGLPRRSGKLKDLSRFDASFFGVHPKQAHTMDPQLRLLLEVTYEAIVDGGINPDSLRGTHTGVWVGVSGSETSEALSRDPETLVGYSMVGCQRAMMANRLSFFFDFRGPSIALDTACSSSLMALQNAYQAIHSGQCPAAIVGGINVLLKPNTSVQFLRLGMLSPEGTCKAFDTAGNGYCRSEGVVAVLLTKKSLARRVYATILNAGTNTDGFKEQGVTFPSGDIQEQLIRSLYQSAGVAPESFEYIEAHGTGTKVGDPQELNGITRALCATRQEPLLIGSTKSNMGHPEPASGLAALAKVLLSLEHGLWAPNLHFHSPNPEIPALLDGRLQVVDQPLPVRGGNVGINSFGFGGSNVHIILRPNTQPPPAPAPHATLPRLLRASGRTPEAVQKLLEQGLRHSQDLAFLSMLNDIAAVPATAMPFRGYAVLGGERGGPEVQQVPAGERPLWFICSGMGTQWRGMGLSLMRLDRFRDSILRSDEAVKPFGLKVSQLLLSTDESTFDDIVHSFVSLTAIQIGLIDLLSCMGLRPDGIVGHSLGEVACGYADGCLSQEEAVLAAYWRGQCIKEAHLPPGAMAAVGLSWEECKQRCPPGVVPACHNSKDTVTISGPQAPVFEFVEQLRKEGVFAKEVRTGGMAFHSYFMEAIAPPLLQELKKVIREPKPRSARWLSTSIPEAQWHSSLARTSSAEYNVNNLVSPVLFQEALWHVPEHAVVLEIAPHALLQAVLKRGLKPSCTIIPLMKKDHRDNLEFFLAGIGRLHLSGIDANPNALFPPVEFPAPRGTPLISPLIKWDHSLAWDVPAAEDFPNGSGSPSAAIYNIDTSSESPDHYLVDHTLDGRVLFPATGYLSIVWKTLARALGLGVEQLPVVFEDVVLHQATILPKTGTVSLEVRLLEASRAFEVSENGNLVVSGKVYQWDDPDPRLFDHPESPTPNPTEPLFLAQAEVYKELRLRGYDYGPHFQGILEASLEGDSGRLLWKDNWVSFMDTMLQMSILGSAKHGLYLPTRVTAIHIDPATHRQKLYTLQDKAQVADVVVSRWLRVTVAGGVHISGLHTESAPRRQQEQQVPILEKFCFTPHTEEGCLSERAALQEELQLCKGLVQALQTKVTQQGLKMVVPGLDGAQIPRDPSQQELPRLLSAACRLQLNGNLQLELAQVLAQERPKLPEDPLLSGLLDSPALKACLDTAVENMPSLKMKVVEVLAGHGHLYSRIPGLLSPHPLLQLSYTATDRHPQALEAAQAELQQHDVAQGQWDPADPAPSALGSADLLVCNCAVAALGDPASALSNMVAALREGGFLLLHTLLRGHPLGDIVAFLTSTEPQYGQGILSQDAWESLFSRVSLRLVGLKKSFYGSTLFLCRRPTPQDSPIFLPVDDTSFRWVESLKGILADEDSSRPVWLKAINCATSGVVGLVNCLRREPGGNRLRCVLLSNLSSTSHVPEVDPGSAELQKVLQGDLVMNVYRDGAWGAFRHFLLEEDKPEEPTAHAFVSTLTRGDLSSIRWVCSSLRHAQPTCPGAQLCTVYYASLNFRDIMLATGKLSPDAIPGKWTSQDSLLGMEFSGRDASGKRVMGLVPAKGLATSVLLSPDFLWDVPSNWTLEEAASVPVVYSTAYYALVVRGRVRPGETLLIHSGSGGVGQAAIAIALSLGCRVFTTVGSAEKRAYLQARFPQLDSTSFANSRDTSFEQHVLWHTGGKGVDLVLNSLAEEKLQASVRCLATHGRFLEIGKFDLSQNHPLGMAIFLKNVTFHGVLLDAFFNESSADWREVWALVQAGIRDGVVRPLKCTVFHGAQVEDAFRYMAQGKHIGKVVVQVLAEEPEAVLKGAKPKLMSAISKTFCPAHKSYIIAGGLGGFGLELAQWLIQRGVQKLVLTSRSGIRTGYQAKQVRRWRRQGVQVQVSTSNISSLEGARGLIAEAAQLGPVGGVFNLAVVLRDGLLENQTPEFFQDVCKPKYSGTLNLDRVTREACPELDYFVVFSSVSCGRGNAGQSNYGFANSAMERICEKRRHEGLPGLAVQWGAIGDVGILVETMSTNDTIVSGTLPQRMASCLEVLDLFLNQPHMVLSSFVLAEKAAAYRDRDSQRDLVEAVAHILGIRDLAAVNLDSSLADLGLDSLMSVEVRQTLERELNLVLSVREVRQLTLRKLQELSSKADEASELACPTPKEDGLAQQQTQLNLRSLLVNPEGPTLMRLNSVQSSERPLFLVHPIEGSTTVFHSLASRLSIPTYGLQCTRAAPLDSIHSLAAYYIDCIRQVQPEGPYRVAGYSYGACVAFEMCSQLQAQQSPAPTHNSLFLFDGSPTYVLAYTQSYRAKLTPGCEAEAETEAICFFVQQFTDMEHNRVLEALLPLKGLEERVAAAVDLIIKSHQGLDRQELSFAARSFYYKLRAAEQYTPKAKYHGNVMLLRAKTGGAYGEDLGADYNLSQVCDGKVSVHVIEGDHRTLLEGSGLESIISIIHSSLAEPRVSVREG

[8] = biological target: T1, Fatty acid synthase; assay: FAS thioesterase domain inhibitors, dose response, biochemical, kinetic fluorescence intensity (AID 624326); assay type: functional;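 further: rate of fluorescence rise from hydrolysis of a fluorogenic O-methyl fluorescein ester substrate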
[9] = tested on: SN12K1; assay: cells; assay type: functional; conditions: Homo sapiens
[10] = tested on: P388; assay: cells; assay type: functional; conditions: Mus musculus
[11] = HepG2 cell cytotoxicity, dose response, cytotoxicity control, plate reader, cherry-pick, antagonist series (AID 743416); assay type: functional, cell-based
[12] = tested on: P388/ADR; assay: cells; assay type: functional; conditions: Mus musculus
[13] = inhibitors of intracellular T. cruzi replication, confirmation, NIH3T3 host cells, beta-gal luminescence (AID 2044); assay type: functional, cell-based;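 further: intracellular parasites grown in NIH/3T3 mouse fibroblasts as host cells; luminescent beta-galactosidase reporter signal from transgenic T. cruzi replicating inside host cells; inhibitors lower the luminescence signal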
[14] = cytotoxicity toward NIH3T3 fibroblasts, dose response, counter-screen, cell-based, ATP luminescence, mouse fibroblasts (AID 2010); assay type: functional;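 further: cells exposed to compound for about 90 hours before reading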
[15] = HEp-2 cell cytotoxicity, dose response, cytotoxicity control for RSV inhibitor project, HTS (AID 2410); assay type: functional; conditions: human respiratory syncytial virus
[16] = biological target: T2, Caspase-6 (Homo sapiens, UniProt P55212); assay: human caspase-6 inhibitors, dose response, biochemical, VEID-R110 fluorescence, cherry-pick (AID 720632)
T2 sequence (P55212 whole entry): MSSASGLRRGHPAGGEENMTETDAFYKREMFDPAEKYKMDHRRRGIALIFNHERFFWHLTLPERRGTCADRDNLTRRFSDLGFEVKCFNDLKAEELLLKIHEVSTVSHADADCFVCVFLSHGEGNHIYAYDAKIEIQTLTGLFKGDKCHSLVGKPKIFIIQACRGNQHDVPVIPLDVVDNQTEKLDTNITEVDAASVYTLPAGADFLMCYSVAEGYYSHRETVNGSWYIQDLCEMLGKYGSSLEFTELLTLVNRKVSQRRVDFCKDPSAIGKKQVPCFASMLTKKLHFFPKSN

[17] = biological target: T3, Heat shock factor protein 1 (Mus musculus, UniProt P38532); assay: HSF1 potentiators in luciferase reporter cells, confirmation, cell-based, NIH3T3, luminescence, dose retest (AID 435004); assay type: functional;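 further: stress induced by proteasome inhibitor MG132 added 30 min after compound; luciferase reporter driven by HSF1 response element in NIH3T3 cells; actives raise luminescence as potentiators of the MG132 stress response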
T3 sequence (P38532 whole entry): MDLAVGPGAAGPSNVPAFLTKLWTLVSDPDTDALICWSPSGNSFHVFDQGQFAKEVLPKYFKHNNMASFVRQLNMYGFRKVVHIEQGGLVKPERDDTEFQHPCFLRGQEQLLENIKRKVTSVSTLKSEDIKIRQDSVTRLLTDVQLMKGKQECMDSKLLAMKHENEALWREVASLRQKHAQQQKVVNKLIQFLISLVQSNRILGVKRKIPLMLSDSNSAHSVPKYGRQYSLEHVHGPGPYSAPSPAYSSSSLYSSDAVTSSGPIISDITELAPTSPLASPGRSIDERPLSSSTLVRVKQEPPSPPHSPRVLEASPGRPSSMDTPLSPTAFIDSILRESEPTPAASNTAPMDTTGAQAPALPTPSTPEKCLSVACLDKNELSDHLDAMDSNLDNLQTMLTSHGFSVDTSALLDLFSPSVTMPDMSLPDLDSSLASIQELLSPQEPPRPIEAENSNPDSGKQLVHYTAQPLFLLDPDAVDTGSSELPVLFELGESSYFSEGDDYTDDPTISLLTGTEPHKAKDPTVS

[18] = cytotoxicity toward DRD oncogenic fibroblasts, dose response, cell-based, non-viral oncogenic, luminescence (AID 1934); assay type: functional; conditions: Homo sapiens
[19] = tested on: BJ; assay: cells; assay type: functional, cell-based; conditions: Homo sapiens
[20] = tested on: BJ; assay: cytotoxicity toward BJ-TERT-LT-ST fibroblasts, dose response, cell-based, RAS-independent, luminescence (AID 1935); assay type: functional; conditions: Homo sapiens;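 further: BJ fibroblasts immortalized with TERT plus LT and ST oncogenes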
[21] = tested on: BJ; assay: cytotoxicity toward BJ-TERT fibroblasts, dose response, cell-based, RAS-independent, luminescence (AID 1933); assay type: functional; conditions: Homo sapiens
[22] = tested on: INS1; assay: beta cell apoptosis inhibitors, cytokine rescue, dose response, luminescence, retest (AID 449756); assay type: functional, cell-based; conditions: Rattus norvegicus;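 further: cell death triggered by IL-1 beta plus TNF-alpha plus IFN-gamma mixture; protective hits raise ATP signal compared with cytokine alone wells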
[23] = tested on: Streptococcus; assay: Group A Streptococcus viability loss, dose response, counter-screen for streptokinase expression inhibitor project, luminescence, BacTiterGlo (AID 1915); assay type: functional, organism-based;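 further: potency for reduction of bacterial viability or growth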
[24] = biological target: T4, Streptokinase A (Streptococcus pyogenes serotype M1, UniProt P10520); assay: S. pyogenes streptokinase expression inhibitors, potency, dose response, plasminogen activation absorbance, OD405 (AID 1914); assay type: functional, Streptococcus pyogenes M1 GAS;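 further: secreted streptokinase activity via plasminogen activation per viability signal from cell pellet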
T4 sequence (P10520 whole entry): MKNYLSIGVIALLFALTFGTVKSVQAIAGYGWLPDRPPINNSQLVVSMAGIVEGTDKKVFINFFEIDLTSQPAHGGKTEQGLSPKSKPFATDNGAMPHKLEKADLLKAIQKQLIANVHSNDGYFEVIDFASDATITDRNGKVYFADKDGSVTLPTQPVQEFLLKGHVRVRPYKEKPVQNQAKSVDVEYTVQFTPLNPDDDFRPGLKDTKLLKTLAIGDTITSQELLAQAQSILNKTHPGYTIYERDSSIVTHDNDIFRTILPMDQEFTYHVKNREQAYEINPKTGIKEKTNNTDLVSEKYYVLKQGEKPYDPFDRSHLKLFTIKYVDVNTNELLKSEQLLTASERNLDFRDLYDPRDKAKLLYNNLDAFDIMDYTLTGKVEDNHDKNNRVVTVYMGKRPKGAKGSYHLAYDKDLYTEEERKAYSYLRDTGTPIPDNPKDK

[25] = tested on: Streptococcus sp. 'group A'; assay: growth inhibition of control SK(-) GAS strain, dose response, counter-screen for streptokinase expression inhibitor project, luminescence, kanamycin, BacTiterGlo, confirmation (AID 1900); assay type: functional, organism-based

CC1CCC(NC(=O)N(CCCl)N=O)CC1 (configuration not stated) [SEMUSTINE]
EC50 [1]: 16.2 µM (active)
EC50 [2]: 24 µM (active)
EC50 [3]: 5.98 µM (active)

Cc1ccc(C(CC(=O)NCc2ccco2)c2ccc(OC(C)C)cc2)cc1 (configuration not stated)
EC50 [4]: 15.9 µM (active)

Cc1cc(Sc2nc(N)ncc2[N+](=O)[O-])ncn1
EC50 [5]: 0.746 µM (active)
EC50 [6]: 4.19 µM (inconclusive)

O=C(OCC(=O)N1CCCC1=O)c1nc(Cl)c(Cl)c(Cl)c1Cl
EC50 [1]: > 120 µM (not active)
EC50 [2]: > 120 µM (not active)
EC50 [3]: 14.4 µM (active)

O=C1CC(N2CCN(c3ccc(S(=O)(=O)N4CCOCC4)cc3)CC2)C(=O)N1Cc1ccccc1 (configuration not stated)
IC50 [7]: 8.79 µM (active)
IC50 [8]: 7.53 µM (active)

COc1cc([C@@H]2c3cc4c(c(O[C@@H]5O[C@H]6CO[C@@H](C)O[C@H]6[C@H](O)[C@@H]5O)c3C[C@H]3COC(=O)[C@@H]32)OCO4)cc(OC)c1O
GI50 [9]: 10.9 µM (inactive)
GI50 [10]: 2.16 µM (inactive)

Cc1ccc(S(=O)(=O)N2CCCc3nc(-c4ccc(F)cc4)ccc32)cc1
AC50 [11]: > 52 µM (inactive)

CC(/C=N/N=C(N)N)=N\N=C(N)N
GI50 [9]: 2.17 µM (inactive)
GI50 [10]: 0.25 µM (active)
GI50 [12]: 0.519 µM (active)

O=S(=O)(c1ccc(-c2csc(-c3cccnc3)n2)cc1)N1CCCCC1
EC50 [13]: 1.89 µM (active)
EC50 [14]: > 30 µM (not active)
CC50 [15]: 40.1 µM (active)
IC50 [8]: 3.65 µM (active)

O=C(Nc1cc([N+](=O)[O-])ccc1O)c1ccc2c(c1)C(=O)N(Cc1ccco1)C2=O
AC50 [16]: 18.5 µM (active)

NC(S)=NNc1cccc(Cl)c1
EC50 [5]: > 38 µM (not active)
EC50 [6]: > 160 µM (inactive)

Cc1cc(C)c(NS(=O)(=O)c2cccc3cccnc23)c(C)c1
EC50 [5]: > 38 µM (not active)
EC50 [6]: 38.5 µM (active)

Cc1ccc(-c2nnc(SCC(C)C)n2C)cc1
EC50 [1]: 10.1 µM (active)
EC50 [2]: 88.6 µM (active)
EC50 [3]: 11.5 µM (active)

Cc1ccc(C(=O)Cn2c(-c3ccccc3)noc2=O)cc1
EC50 [1]: 15 µM (active)
EC50 [2]: 12.4 µM (active)
EC50 [3]: 13.1 µM (active)

O=C(O)CSc1nc2sc3c(c2c(=O)n1Cc1ccccc1)CCCCC3
EC50 [1]: 16.4 µM (active)
EC50 [2]: 15.6 µM (active)
EC50 [3]: > 60 µM (not active)

Sc1nc2cc(Cl)c3cccnc3c2o1
EC50 [17]: > 260 µM (inactive)
EC50 [5]: > 38 µM (not active)
EC50 [6]: > 150 µM (inactive)

COc1ccc(-c2noc(CCC(=O)N3CCN(c4cc(C)ccc4C)CC3)n2)cc1
EC50 [4]: 3.63 µM (active)

O=C(NCc1ccco1)c1cc2c(s1)CCCCC2
EC50 [1]: > 120 µM (not active)
EC50 [2]: 41.9 µM (active)
EC50 [3]: 34 µM (active)

O=CNCCCc1nc2ccccc2n1Cc1cccc2ccccc12
EC50 [5]: 4.77 µM (active)
EC50 [6]: > 150 µM (inactive)

O=C(CC1C[C@H](C(=O)N2CCOCC2)[C@@]2(CCC3CCCC3)c3[nH]c4ccccc4c3CCN2C1=O)NCCCn1ccnc1 (some centres not stated)
IC50 [7]: 4.37 µM (active)
IC50 [8]: 2.7 µM (active)

COc1ccc(-n2c(C)cc(/C=C/c3nc(O)c([N+](=O)[O-])c(O)n3)c2C)cc1
AC50 [16]: 18.8 µM (active)

O=C(Nc1cccc(NC(=O)c2ccc(-c3ccc(Br)cc3)o2)c1)c1ccccc1
EC50 [4]: 19.1 µM (active)

CC(=O)c1ccc(Oc2ccc(C(=O)c3ccc(C)c(C)c3)cc2[N+](=O)[O-])cc1
EC50 [18]: > 150 µM (inconclusive)
EC50 [19]: > 150 µM (not active)
EC50 [20]: > 150 µM (not active)
EC50 [21]: 26.4 µM (active)

CC(NC(=O)CCC(=O)NC(C)C1COc2ccccc2O1)C1COc2ccccc2O1 (configuration not stated)
EC50 [4]: 4.07 µM (active)

Cc1nc2c(-c3ccc(F)cc3)c(C)nn2c(C)c1CCC(=O)N1CCN(c2ccc(F)cc2)CC1
EC50 [4]: 5.21 µM (active)

CCCCCCCC[n+]1cccc2c3ccccc3ccc21
EC50 [13]: 0.161 µM (active)
AC50 [22]: 0.268 µM (active)
EC50 [14]: 8.8 µM (active)
EC50 [5]: 2.81 µM (active)
EC50 [6]: 69.2 µM (active)

Cc1c2c(cc3c1[nH]c1ccccc13)C(c1ccc(F)cc1)=NCC2
GI50 [9]: 0.925 µM (active)
GI50 [10]: 0.809 µM (active)
GI50 [12]: 0.448 µM (active)

CCSc1nc2ccccc2n1CCOc1ccccc1
EC50 [4]: 18.2 µM (active)

[O-][n+]1c2ccccc2[n+]([O-])c2cc(O)ccc21
EC50 [23]: 17.3 µM (active)
AC50 [16]: 6.89 µM (active)
EC50 [24]: > 150 µM (not active)
EC50 [25]: 7.97 µM (active)

O=C(COC(=O)c1ccc([N+](=O)[O-])o1)Nc1ncc(Cl)cc1Cl
AC50 [16]: 28.3 µM (active)

Nc1ncc2c(n1)-c1ccccc1OC2
GI50 [9]: > 100 µM (inactive)
GI50 [10]: > 100 µM (inactive)

COc1ccc(CC(=N)NOC(=O)c2cccc([N+](=O)[O-])c2)cc1
IC50 [7]: 18.3 µM (active)
IC50 [8]: 14.6 µM (active)

COC1C(O)CC(OC2CC(Oc3cc4cc5c(c(O)c4c(O)c3C)C(=O)[C@@H](OC3CC(OC4CC(OC6CC(C)(O)C(OC(C)=O)C(C)O6)C(O)C(C)O4)C(O)C(C)O3)[C@H]([C@H](OC)C(=O)[C@@H](O)[C@@H](C)O)C5)OC(C)C2OC(C)=O)OC1C (some centres not stated) [CHROMOMYCIN]
GI50 [9]: 0.0034 µM (active)
GI50 [12]: 0.132 µM (active)

CC1=CC2c3cccc4[nH]cc(c34)CC2N(C)C1 (configuration not stated)
GI50 [9]: 27.2 µM (inactive)
GI50 [10]: 31 µM (inactive)
GI50 [12]: 14.2 µM (inactive)

CN1CCC(=NNC(=O)C(=O)Nc2ccc(F)cc2)CC1
EC50 [1]: 15 µM (active)
EC50 [2]: 23.6 µM (active)
EC50 [3]: 14.5 µM (active)

O=S(=O)(O)c1cc2ccc1/C=C\c1ccc(cc1S(=O)(=O)O)/N=N\c1ccc(c(S(=O)(=O)O)c1)/C=C\c1ccc(cc1S(=O)(=O)O)/N=N\2
GI50 [9]: > 100 µM (inactive)
GI50 [10]: > 100 µM (inactive)
GI50 [12]: > 100 µM (inactive)

CN(C)CCNC(=O)c1cccc2c1C(=O)c1ccccc1C2=O
GI50 [9]: 49.5 µM (inactive)
GI50 [10]: 19.7 µM (inactive)
GI50 [12]: 20.8 µM (inactive)

CCCCC/C=C\C/C=C\C/C=C\CCCCC(=O)O [GAMOLENIC ACID]
AC50 [16]: 0.505 µM (active)
